Patent US6831092B1 (priority 1999, dated 2004)
Read-outs that look alike come from different tables or passages of the source.

Legend:
[1] = tested on: fungi of tomato late blight; type: in vivo, fungi of tomato late blight on tomato (cultivar: Ponderosa)
[2] = tested on: fungi of cucumber downy mildew; assay: Test on preventive effect against cucumber downy mildew; type: in vivo, fungi of cucumber downy mildew on cucumber (cultivar: Suyo)
From the text: Test on Preventive Effect Against Cucumber Downy Mildew
Cucumber (cultivar: Suyo) was cultivated in a polyethylene pot having a diameter of 7.5 cm, and when the cucumber reached a two-leaf stage, two seedlings of the cucumber were sprayed with a drug solution having predetermined concentrations of sample compounds in an amount of 1, 000 l/ha by a spray gun. On the next day after the treatment, the cucumber was sprayed and inoculated with a zoosporangia suspension of fungi of cucumber downy mildew, and the cucumber was kept in a moist chamber at 20° C. for 18 hours. Then, it was kept in a constant temperature chamber of 20° C. for from 6 to 7 days, and the average area of lesions on the first leaves of the two seedlings was examined to find the incidence according to the following formula. Here, the average area of lesions in the non-treated plot was obtained in the same manner as the treated plot, except that the cucumber was sprayed with water instead of the drug solution by a spray gun. […]
a: Average area of lesions in the treated plot b: Average area of lesions in the non-treated plot
Further, the theoretical value can be calculated from the following Colby's formula:
Theoretical value=(X×Y)/100
X: Incidence (%) in the case of treatment with the compound No. 1 alone Y: Incidence (%) in the case of treatment with the compound a, b, c or d alone When the experimental values are lower than the theoretical values by Colby's formula, the pesticidal composition of the present invention has a synergistic effect of controlling pests. The theoretical values by Colby's formula in such cases are shown in parenthesis ( ) in Tables 1 to 4.

`CSC1=N[C@@](C)(c2ccccc2)C(=O)N1Nc1ccccc1` [Compd. a, (S)-5-methyl-2-methylthio-5-phenyl-3-phenylamino-3.5-dihydroimidazole-4-one] was tested, and the “Incidence of tomato late blight” value ([1]; Compd. a 0.062 ppm alone (Compd. No. 1 0 ppm), Table 5) was 100%, the “Incidence of tomato late blight” value ([1]; Compd. a 0.125 ppm alone (Compd. No. 1 0 ppm), Table 5) was 97.2% and the “Incidence of tomato late blight” value ([1]; Compd. a 0.25 ppm alone (Compd. No. 1 0 ppm), Table 5) was 94.4%. For the same compound, the “Incidence of tomato late blight” value ([1]; Compd. a 0.5 ppm alone (Compd. No. 1 0 ppm), Table 5) was 66.1%, the “Incidence of tomato late blight” value ([1]; Compd. a 1 ppm alone (Compd. No. 1 0 ppm), Table 5) was 53.5% and the “Incidence of cucumber downy mildew” value ([2]; Compd. a 0.25 ppm alone (Compd. No. 1 0 ppm), Table 1) was 82.1%. For the same compound, the “Incidence of cucumber downy mildew” value ([2]; Compd. a 0.5 ppm alone (Compd. No. 1 0 ppm), Table 1) was 66.7% and the “Incidence of cucumber downy mildew” value ([2]; Compd. a 1 ppm alone (Compd. No. 1 0 ppm), Table 1) was 12.8%.
For `Cc1ccc(C(C)NC(=O)[C@@H](NC(=O)OC(C)C)C(C)C)cc1` (stereo partly drawn) [Compd. b, isopropyl 2-methyl-1-((1-p-tolylethyl)carbamoyl)-(S)-propylcarbamate], the “Incidence of tomato late blight” value ([1]; Compd. b 1 ppm alone (Compd. No. 1 0 ppm), Table 6) was 100%, the “Incidence of tomato late blight” value ([1]; Compd. b 4 ppm alone (Compd. No. 1 0 ppm), Table 6) was 71.9% and the “Incidence of tomato late blight” value ([1]; Compd. b 8 ppm alone (Compd. No. 1 0 ppm), Table 6) was 46.9%. The “Incidence of cucumber downy mildew” value ([2]; Compd. b 2 ppm alone (Compd. No. 1 0 ppm), Table 2) was 87.6%, the “Incidence of cucumber downy mildew” value ([2]; Compd. b 4 ppm alone (Compd. No. 1 0 ppm), Table 2) was 67.0% and the “Incidence of cucumber downy mildew” value ([2]; Compd. b 8 ppm alone (Compd. No. 1 0 ppm), Table 2) was 46.4%. The “Incidence of cucumber downy mildew” value ([2]; Compd. b 16 ppm alone (Compd. No. 1 0 ppm), Table 2) was 15.5%.
For `Cc1ccc(-c2c(Cl)nc(C#N)n2S(=O)(=O)N(C)C)cc1` [Compd. No. 1, 4-chloro-2-cyano-1-dimethylsulfamoyl-5-(4-methylphenyl)imidazole], the “Incidence of tomato late blight” value ([1]; Compd. No. 1 0.062 ppm alone (Compd. a 0 ppm), Table 5) was 91.3%, the “Incidence of tomato late blight” value ([1]; Compd. No. 1 0.062 ppm alone (Compd. b 0 ppm), Table 6) was 90.6% and the “Incidence of tomato late blight” value ([1]; Compd. No. 1 0.062 ppm alone (Compd. c 0 ppm), Table 7) was 65.6%. For the same compound, the “Incidence of tomato late blight” value ([1]; Compd. No. 1 0.125 ppm alone (Compd. c 0 ppm), Table 7) was 37.5%, the “Incidence of tomato late blight” value ([1]; Compd. No. 1 0.125 ppm alone (Compd. d 0 ppm), Table 8) was 100% and the “Incidence of tomato late blight” value ([1]; Compd. No. 1 0.25 ppm alone (Compd. a 0 ppm), Table 5) was 25.6%. For the same compound, the “Incidence of tomato late blight” value ([1]; Compd. No. 1 0.25 ppm alone (Compd. b 0 ppm), Table 6) was 78.1%, the “Incidence of tomato late blight” value ([1]; Compd. No. 1 0.25 ppm alone (Compd. c 0 ppm), Table 7) was 21.9% and the “Incidence of tomato late blight” value ([1]; Compd. No. 1 0.25 ppm alone (Compd. d 0 ppm), Table 8) was 100%. For the same compound, the “Incidence of tomato late blight” value ([1]; Compd. No. 1 0.50 ppm alone (Compd. b 0 ppm), Table 6) was 50.0%, the “Incidence of tomato late blight” value ([1]; Compd. No. 1 0.50 ppm alone (Compd. c 0 ppm), Table 7) was 6.3% and the “Incidence of tomato late blight” value ([1]; Compd. No. 1 0.5 ppm alone (Compd. d 0 ppm), Table 8) was 83.4%. For the same compound, the “Incidence of tomato late blight” value ([1]; Compd. No. 1 1.125 ppm alone (Compd. a 0 ppm), Table 5) was 69.2%, the “Incidence of tomato late blight” value ([1]; Compd. No. 1 1.125 ppm alone (Compd. b 0 ppm), Table 6) was 87.5% and the “Incidence of cucumber downy mildew” value ([2]; Compd. No. 1 0.06 ppm alone (Compd. d 0 ppm), Table 4) was 85%. For the same compound, the “Incidence of cucumber downy mildew” value ([2]; Compd. No. 1 0.062 ppm alone (Compd. a 0 ppm), Table 1) was 87.6%, the “Incidence of cucumber downy mildew” value ([2]; Compd. No. 1 0.062 ppm alone (Compd. b 0 ppm), Table 2) was 84.6% and the “Incidence of cucumber downy mildew” value ([2]; Compd. No. 1 0.062 ppm alone (Compd. c 0 ppm), Table 3) was 25.4%. For the same compound, the “Incidence of cucumber downy mildew” value ([2]; Compd. No. 1 0.125 ppm alone (Compd. a 0 ppm), Table 1) was 20.5%, the “Incidence of cucumber downy mildew” value ([2]; Compd. No. 1 0.125 ppm alone (Compd. b 0 ppm), Table 2) was 56.7% and the “Incidence of cucumber downy mildew” value ([2]; Compd. No. 1 0.125 ppm alone (Compd. c 0 ppm), Table 3) was 2.5%. For the same compound, the “Incidence of cucumber downy mildew” value ([2]; Compd. No. 1 0.25 ppm alone (Compd. a 0 ppm), Table 1) was 5.1%, the “Incidence of cucumber downy mildew” value ([2]; Compd. No. 1 0.25 ppm alone (Compd. c 0 ppm), Table 3) was 2.5% and the “Incidence of cucumber downy mildew” value ([2]; Compd. No. 1 0.25 ppm alone (Compd. d 0 ppm), Table 4) was 5.0%. The “Incidence of cucumber downy mildew” value ([2]; Compd. No. 1 0.5 ppm alone (Compd. d 0 ppm), Table 4) was 2.5% and the “Incidence of cucumber downy mildew” value ([2]; Compd. No. 1 1 ppm alone (Compd. d 0 ppm), Table 4) was 0%.
With `CCNc1nc(CC)c(C(=O)NC(C#N)c2cccs2)s1` (centres unmarked) [Compd. d, N-(a-cyano-2-thienyl)-4-ethyl-2-(ethylamino)-5-thiazole carboxyamide] the “Incidence of tomato late blight” value ([1]; Compd. d 4 ppm alone (Compd. No. 1 0 ppm), Table 8) was 75%, the “Incidence of tomato late blight” value ([1]; Compd. d 8 ppm alone (Compd. No. 1 0 ppm), Table 8) was 29.2% and the “Incidence of tomato late blight” value ([1]; Compd. d 16 ppm alone (Compd. No. 1 0 ppm), Table 8) was 16.5%. For the same compound, the “Incidence of cucumber downy mildew” value ([2]; Compd. d 1 ppm alone (Compd. No. 1 0 ppm), Table 4) was 100%, the “Incidence of cucumber downy mildew” value ([2]; Compd. d 8 ppm alone (Compd. No. 1 0 ppm), Table 4) was 15% and the “Incidence of cucumber downy mildew” value ([2]; Compd. d 16 ppm alone (Compd. No. 1 0 ppm), Table 4) was 20%.
For `CCC(C)(NC(=O)c1cc(Cl)c(C)c(Cl)c1)C(=O)CCl` (centres unmarked) [Compd. c, 3.5-dichloro-N-(3-chloro-1-ethyl-1-methyl-2-oxopropyl)-4-methylbenzamide], the “Incidence of tomato late blight” value ([1]; Compd. c 1 ppm alone (Compd. No. 1 0 ppm), Table 7) was 62.5%, the “Incidence of tomato late blight” value ([1]; Compd. c 4 ppm alone (Compd. No. 1 0 ppm), Table 7) was 62.5% and the “Incidence of tomato late blight” value ([1]; Compd. c 8 ppm alone (Compd. No. 1 0 ppm), Table 7) was 31.3%. The “Incidence of cucumber downy mildew” value ([2]; Compd. c 0.5 ppm alone (Compd. No. 1 0 ppm), Table 3) was 95.8%, the “Incidence of cucumber downy mildew” value ([2]; Compd. c 1 ppm alone (Compd. No. 1 0 ppm), Table 3) was 71.2% and the “Incidence of cucumber downy mildew” value ([2]; Compd. c 2 ppm alone (Compd. No. 1 0 ppm), Table 3) was 61.0%.
